Measurements as given in ChEMBL document CHEMBL1154344, “New quaternary ammonium oxicam derivatives: synthesis and in vitro antiosteoarthritis evaluation” (2010).
Blank lines part the entries; values can stand above or below the molecule they belong to. Calls of active or inactive are those of the source. No cut-off for these calls is given here.

Legend:
[1] = species: Bos taurus; test: (§1) Antiosteoarthritis activity in bovine articular chondrocytes assessed as induction of aggrecan mRNA expression at 1 uM after 5 days by Northern blot analysis relative to control; format: functional
[2] = species: Bos taurus; test: (§2) Antiosteoarthritis activity in bovine articular chondrocytes assessed as inhibition of IL1-induced reduction of aggrecan mRNA expression at 1 uM after 5 days by Northern blot analysis relative to control; format: functional
[3] = species: Bos taurus; test: (§3) Antiosteoarthritis activity in bovine articular chondrocytes assessed as induction of aggrecan mRNA expression at 10 uM after 5 days by Northern blot analysis relative to control; format: functional
[4] = species: Bos taurus; test: (§4) Antiosteoarthritis activity in bovine articular chondrocytes assessed as inhibition of IL1-induced reduction of aggrecan mRNA expression at 10 uM after 5 days by Northern blot analysis relative to control; format: functional
[5] = species: Bos taurus; test: (§5) Antiosteoarthritis activity in bovine articular chondrocytes assessed as inhibition of IL1-induced reduction of aggrecan mRNA expression at 0.1 uM after 5 days by Northern blot analysis relative to control; format: functional
[6] = species: Bos taurus; test: (§6) Antiosteoarthritis activity in bovine articular chondrocytes assessed as induction of aggrecan mRNA expression at 0.1 uM after 5 days by Northern blot analysis relative to control; format: functional
[7] = species: Bos taurus; test: Induction of TGF-beta1 mRNA expression in bovine articular chondrocytes at 1 uM after 5 days by RT-PCR analysis in presence of IL-1; format: functional, cell-based
[8] = species: Bos taurus; test: Induction of TGF-beta1 mRNA expression in bovine articular chondrocytes at 1 uM after 5 days by RT-PCR analysis; format: functional, cell-based
[9] = Antiosteoarthritis activity in bovine articular chondrocytes assessed as inhibition of IL1-induced reduction of aggrecan mRNA expression at 0.1 uM after 5 days by RT-PCR analysis relative to control; format: functional; settings: Bos taurus, 120 h
[10] = Induction of TGF receptor type 2 mRNA expression in bovine articular chondrocytes at 10 uM after 5 days by RT-PCR analysis relative to control; format: functional, Bos taurus
[11] = Induction of TGF-beta2 mRNA expression in bovine articular chondrocytes at 10 uM after 5 days by RT-PCR analysis relative to control; format: functional, Bos taurus
[12] = (§7) Antiosteoarthritis activity in bovine articular chondrocytes assessed as induction of aggrecan mRNA expression at 10 uM after 5 days by RT-PCR analysis relative to control; format: functional, Bos taurus
[13] = species: Bos taurus; test: as §7; format: functional
[14] = species: Bos taurus; test: Induction of TGF-beta1 mRNA expression in bovine articular chondrocytes at 10 uM after 5 days by RT-PCR analysis in presence of IL-1; format: functional, cell-based
[15] = species: Bos taurus; test: Induction of TGF receptor type 1 mRNA expression in bovine articular chondrocytes at 1 uM after 5 days by RT-PCR analysis; format: functional, cell-based
[16] = species: Bos taurus; test: Induction of TGF-beta1 mRNA expression in bovine articular chondrocytes at 10 uM after 5 days by RT-PCR analysis; format: functional, cell-based
[17] = species: Bos taurus; test: Induction of TGF receptor type 1 mRNA expression in bovine articular chondrocytes at 1 uM after 5 days by RT-PCR analysis in presence of IL-1; format: functional, cell-based
[18] = Induction of TGF receptor type 2 mRNA expression in bovine articular chondrocytes at 1 uM after 5 days by RT-PCR analysis relative to control; format: functional, Bos taurus
[19] = species: Bos taurus; test: Induction of TGF receptor type 1 mRNA expression in bovine articular chondrocytes at 10 uM after 5 days by RT-PCR analysis; format: functional, cell-based
[20] = Antiosteoarthritis activity in bovine articular chondrocytes assessed as inhibition of IL1-induced reduction of aggrecan mRNA expression at 1 uM after 5 days by RT-PCR analysis relative to control; format: functional; settings: Bos taurus, 120 h
[21] = species: Bos taurus; test: Antiosteoarthritis activity in bovine articular chondrocytes assessed as restoration of IL-1-inuced inhibition of proteoglycans biosynthesis at 0.1 to 10 uM; format: functional, cell-based
[22] = species: Bos taurus; test: Induction of TGF receptor type 1 mRNA expression in bovine articular chondrocytes at 10 uM after 5 days by RT-PCR analysis in presence of IL-1; format: functional, cell-based
[23] = Induction of TGF-beta2 mRNA expression in bovine articular chondrocytes at 1 uM after 5 days by RT-PCR analysis relative to control; format: functional, Bos taurus
[24] = as §2; format: functional, Bos taurus; parameters: scale not given: the % may be the effect or the level left
[25] = as §3; format: functional; settings: Bos taurus, 120 h; values are per cent of control
[26] = as §5; format: functional, Bos taurus; parameters: scale not given: the % may be the effect or the level left
[27] = as §6; format: functional, Bos taurus
[28] = as §1; format: functional, Bos taurus
[29] = as §4; format: functional, Bos taurus; parameters: scale not given: the % may be the effect or the level left

Compound: CC[N+](CC)(CC)CCCNC(=O)C1=C(O)c2ccccc2S(=O)(=O)N1C
- Activity [1]: inactive
- Activity [2]: inactive
- Activity [3]: inactive
- Activity [4]: inactive
- Activity [5]: inactive
- Activity [6]: inactive

- Activity [15]: inactive
- Activity [17]: inactive
- Activity [19]: inactive
- Activity [22]: inactive
Compound: CN1C(C(=O)NCCC[N+](C)(C)C)=C(O)c2ccccc2S1(=O)=O.[I-]
- Activity [7]: inactive
- Activity [8]: inactive
- inhibition at 0.1 µM [9]: 150%
- Activity [10]: 18%
- Activity [11]: 37%
- Activity [12]: 62%
- Activity [13]: Active
- Activity [14]: inactive
- Activity [16]: inactive
- Activity [18]: 45%
- inhibition at 1 µM [20]: 63%
- Activity [21]: Active
- Activity [23]: 30%

Compound: CN1C(C(=O)NCCC[n+]2ccccc2)=C(O)c2ccccc2S1(=O)=O
- Activity [1]: inactive
- Activity [2]: inactive
- Activity [3]: inactive
- Activity [4]: inactive
- Activity [5]: inactive
- Activity [6]: inactive

Compound: CC[N+](C)(CC)CCCNC(=O)C1=C(O)c2ccccc2S(=O)(=O)N1C.[I-]
- Activity [12]: 31%
- Activity [24]: 130%
- Activity [2]: Active
- response, % of control at 10 µM [25]: 216%
- Activity [4]: Active
- inhibition at 1 µM [20]: 130%
- Activity [21]: Active
- Activity [26]: 216%
- Activity [5]: Active
- Activity [27]: 31%

Compound: CN1C(C(=O)Nc2ccccn2)=C(O)c2ccccc2S1(=O)=O [PIROXICAM]
- Activity [28]: 37%
- Activity [2]: Active
- Activity [4]: Active
- Activity [5]: Active
- Activity [27]: 23%

Compound: CN1C(C(=O)NCCCC[N+](C)(C)C)=C(O)c2ccccc2S1(=O)=O
- Activity [1]: inactive
- Activity [2]: inactive
- Activity [3]: inactive
- Activity [4]: inactive
- Activity [5]: inactive
- Activity [6]: inactive

Compound: CC[N+](C)(C)CCCNC(=O)C1=C(O)c2ccccc2S(=O)(=O)N1C
- Activity [1]: inactive
- Activity [2]: inactive
- Activity [3]: inactive
- Activity [4]: inactive
- Activity [5]: inactive
- Activity [6]: inactive

- Activity [15]: inactive
- Activity [17]: inactive
- Activity [19]: inactive
- Activity [22]: inactive
Compound: CN(C)CCCNC(=O)C1=C(O)c2ccccc2S(=O)(=O)N1C [PROPOXICAM]
- Activity [28]: 25%
- Activity [7]: inactive
- Activity [8]: inactive
- Activity [11]: 22%
- Activity [2]: Active
- Activity [14]: inactive
- Activity [16]: inactive
- Activity [29]: 65%
- Activity [4]: Active
- Activity [5]: Active
- Activity [27]: 25%
- Activity [23]: 31%
